Source: ChEMBL document CHEMBL5584215, “Biological evaluation of indolactams for in vitro bryostatin 1-like activity” (Bioorg Med Chem Lett, 2024)
Active and inactive are the calls of the source. The calls are words filed in the database; no cut-off is given here.

What was measured:
[1] = tested on: U-937; test: Induction of cell attachment in human U-937 cells at 1 to 100 nM incubated for 72 hrs relative to control; assay type: functional; conditions: dose 1-100 nM
[2] = tested on: U-937; test: Induction of cell attachment in human U-937 cells at 1 to 100 nM incubated for 72 hrs; assay type: functional, cell-based; conditions: dose 1-100 nM
[3] = tested on: U-937; test: Induction of cell attachment in human U-937 cells at 100 nM incubated for 72 hrs; assay type: functional, cell-based
[4] = tested on: LNCaP; test: Growth inhibition of human LNCaP cells at 5 to 1500 nM incubated for 72 hrs; assay type: functional, cell-based; conditions: dose 5-1500 nM
[5] = target: Protein kinase C delta type (Homo sapiens, UniProt Q05655); test: Binding affinity to PKCdelta (unknown origin) assessed as inhibition constant
[6] = tested on: U-937; test: Induction of cell attachment in human U-937 cells at 1000 nM incubated for 72 hrs relative to control; assay type: functional
[7] = tested on: U-937; test: Induction of cell attachment in human U-937 cells at more than 10 nM incubated for 72 hrs relative to control; assay type: functional
[8] = tested on: U-937; test: Growth inhibition of human U-937 cells assessed as reduction in total cell number at 1 to 10 nM incubated for 72 hrs; assay type: functional, cell-based; conditions: dose 1-10 nM
[9] = tested on: U-937; test: Growth inhibition of human U-937 cells assessed as reduction in total cell number at 1000 nM incubated for 72 hrs; assay type: functional, cell-based
[10] = tested on: LNCaP; test: Growth inhibition of human LNCaP cells at 1.5 uM incubated for 72 hrs; assay type: functional, cell-based
[11] = tested on: U-937; test: Induction of cell attachment in human U-937 cells at 100 nM incubated for 72 hrs relative to control; assay type: functional
[12] = tested on: U-937; test: Growth inhibition of human U-937 cells assessed as reduction in total cell number at 100 nM incubated for 72 hrs; assay type: functional; conditions: read-out: GI
[13] = tested on: U-937; test: Induction of cell attachment in human U-937 cells at 1 nM incubated for 72 hrs relative to control; assay type: functional
[14] = tested on: U-937; test: Growth inhibition of human U-937 cells assessed as reduction in total cell number at 1 nM incubated for 72 hrs; assay type: functional; conditions: read-out: GI
[15] = tested on: LNCaP; test: Growth inhibition of human LNCaP cells at < 10 nM incubated for 72 hrs; assay type: functional, cell-based

Sequence of Protein kinase C delta type (Q05655 whole entry): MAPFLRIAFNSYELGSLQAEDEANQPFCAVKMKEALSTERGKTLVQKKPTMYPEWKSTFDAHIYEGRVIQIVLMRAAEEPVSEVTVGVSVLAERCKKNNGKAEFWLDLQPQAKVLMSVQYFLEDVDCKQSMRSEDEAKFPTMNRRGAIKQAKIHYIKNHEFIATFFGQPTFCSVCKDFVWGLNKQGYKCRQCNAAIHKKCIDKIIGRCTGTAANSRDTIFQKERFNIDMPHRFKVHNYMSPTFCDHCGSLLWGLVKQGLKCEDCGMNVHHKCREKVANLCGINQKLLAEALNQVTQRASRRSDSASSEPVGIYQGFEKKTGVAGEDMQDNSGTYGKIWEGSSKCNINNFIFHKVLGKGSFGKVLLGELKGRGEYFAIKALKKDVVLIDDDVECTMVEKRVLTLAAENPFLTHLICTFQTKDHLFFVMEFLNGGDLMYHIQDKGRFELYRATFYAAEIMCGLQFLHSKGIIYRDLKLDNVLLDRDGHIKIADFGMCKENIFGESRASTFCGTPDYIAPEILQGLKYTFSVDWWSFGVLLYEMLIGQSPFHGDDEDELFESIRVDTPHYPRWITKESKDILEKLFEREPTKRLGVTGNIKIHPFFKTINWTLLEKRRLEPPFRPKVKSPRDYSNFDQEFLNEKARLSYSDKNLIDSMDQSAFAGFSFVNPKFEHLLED

## CC(=O)n1cc2c3c(cccc31)N(C)[C@@H](C(C)C)C(=O)N[C@H](CO)C2
[1]
  Activity: <2%
[2]
  Activity: inactive
[3]
  Activity: Active
[4]
  growth inhibition (GI): Active
[5]
  Ki: 94 nM

## CC(C)[C@H]1C(=O)N[C@H](CO)Cc2cn(C(C)C)c3cccc(c23)N1C
[6]
  Activity: 6.5%
[1]
  Activity: <2%
[2]
  Activity: inactive
[3]
  Activity: Active
[4]
  growth inhibition (GI): Active
[5]
  Ki: 32 nM

## C=CC(C)(C)c1ccc2c3c(c[nH]c13)C[C@@H](CO)NC(=O)[C@H](C(C)C)N2C [PENDOLMYCIN]
[7]
  Activity: >60%

## CCC/C=C/C=C/C(=O)O[C@H]1/C(=C/C(=O)OC)C[C@H]2C[C@H]([C@@H](C)O)OC(=O)C[C@H](O)C[C@@H]3C[C@H](OC(C)=O)C(C)(C)[C@](O)(C[C@@H]4C/C(=C/C(=O)OC)C[C@H](/C=C/C(C)(C)[C@]1(O)O2)O4)O3 [BRYOSTATIN 1]
[6]
  Activity: 1.8%
[8]
  growth inhibition (GI): inactive
[9]
  growth inhibition (GI): Active
[10]
  growth inhibition (GI): inactive

## C=C[C@@](C)(CCC=C(C)C)c1ccc2c3c(c[nH]c13)C[C@@H](CO)NC(=O)[C@H](C(C)C)N2C
[7]
  Activity: >60%

## CC(C)[C@H]1C(=O)N[C@H](CO)Cc2c[nH]c3cccc(c23)N1C [INDOLACTUM]
[6]
  Activity: 70.3%
[11]
  Activity: 44.2%
[12]
  inhibition of growth at 0.1 µM: 25.7%

## CCCCCCCCCCCCCC(=O)O[C@H]1[C@H](C)[C@]2(O)[C@H](C=C(CO)C[C@@]3(O)C(=O)C(C)=C[C@H]23)[C@H]2C(C)(C)[C@@]12OC(C)=O
[13]
  Activity: 85.4%
[14]
  inhibition of growth at 0.001 µM: 21.5%
[15]
  growth inhibition (GI): Active
